Measurements as given in patent US20030207340A1, “Sequences encoding human neoplastic marker” (priority 2002, published 2003).

Tests used:
COS cells = test: Growth inhibition of control COS cells (nontransfected / vector alone); type: cell-based, African monkey; conditions: for EC50: Primates, nontransfected COS cells, growth inhibition
Description: (§1) COS-1 cells (African monkey kidney cell line), were plated one day prior to transfection at 4×10^5 cells per 100-mm dish. Thirty-six μl of 2 M CaCl2 and 30 μg of pcDNA3.1 or pcDNA3.1-tNOX in 300 μl sterile H2O were slowly added dropwise into 300 μl of 2× Hepes Buffered Saline (HBS) at room temperature for 30 min. The transfection mixtures then were added dropwise to the media to the cells and incubated overnight at 37C. After overnight exposure to the DNA precipitate, the cells were washed twice with PBS and 3 ml of DMSO were added for 2.5 min. The DMSO then was removed and cells were fed with fresh media for 2-3 days. tNOX expression was evaluated on the basis of enzymatic activity and Western blot analysis. For selection of stable transfectants, antibiotic G418 sulfate was used (Invitrogen, Carlsbad, Calif.). After the COS cells were transfected with the tNOX cDNA expression plasmid, 0.5 mg/ml of G418 sulfate was added into the media twice a week and the cultures were maintained until colonies 2 to 3 mm in diameter were formed. A total of three colonies were selected and trypsinized individually and then transferred into wells of a 24-well plate and then into a 35 mm petri dish. Cells were harvested at 80% confluency. Transfections were confirmed by immunoblotting.

[1] = system: COS cells stably transfected with tNOX cDNA; test: Growth inhibition of COS cells transfected with tNOX cDNA; type: cell-based, African monkey; conditions: for EC50: Primates, COS cells stably transfected with tNOX cDNA, growth inhibition; for change of growth response (susceptibility) by tNOX cDNA transfection: tNOX cDNA-transfected vs control COS cells
From the text: Transient transfection of COS cells were with pcDNA3.1 (Invitrogen) and a Calcium Phosphate Transfection Kit (Invitrogen, Carlsbad, Calif.) according to the manufacturer's protocol. ttNOX cDNA was first amplified by PCR using primers 5═-[…]-3′ (forward; SEQ ID NO: 12) and 5′-[…]-3′ (reverse, SEQ ID NO: 13). The PCR product was then amplified using primers 5′-[…]-3′ (forward, SEQ ID NO: 14) and 5′-[…]-3′ (reverse, SEQ ID NO: 15) to construct a HindIII site at 5′ end of the nontemplate strand. The product was double digested using HindIII and BamHI enzymes. The digested products were separated on an agarose gel and extracted using a DNA Extraction Kit (Qiagen, Valencia, Calif.). The DNA was then ligated into a pcDNA3.1 vector that contains a cytomegalovirus enhancer-promoter for high levels of expression. For propagation of the plasmid DNA, the ligation product was used to transform XL-1 blue competent cells using heat pulse technique (Sambrook et al., 1989, supra). The positive clones were identified by PCR. The resulting plasmid was then used to transfect COS cells.
as §1

ttNOX (truncated tNOX) = molecular target: T1, ttNOX (truncated tNOX) (Homo sapiens, UniProt Q16206); test: NADH oxidase activity of ttNOX expressed in E. coli (induced bacterial extract); type: biochemical
T1 construct: made in house; host or cells: E. coli BL21 (DE3), vector pET-11b; crude induced bacterial extract
T1 sequence (Q16206 220-610): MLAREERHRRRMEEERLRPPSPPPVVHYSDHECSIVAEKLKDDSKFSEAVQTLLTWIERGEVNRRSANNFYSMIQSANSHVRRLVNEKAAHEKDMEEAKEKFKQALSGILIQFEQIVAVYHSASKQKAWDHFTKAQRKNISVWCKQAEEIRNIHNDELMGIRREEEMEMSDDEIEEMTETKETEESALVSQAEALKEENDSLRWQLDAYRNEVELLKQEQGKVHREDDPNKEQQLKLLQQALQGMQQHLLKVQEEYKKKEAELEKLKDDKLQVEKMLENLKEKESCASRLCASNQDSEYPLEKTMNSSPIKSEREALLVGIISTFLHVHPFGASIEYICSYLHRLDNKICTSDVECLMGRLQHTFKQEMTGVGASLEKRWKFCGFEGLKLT
From the text: tNOX cDNA from clone 1 was expressed in E. coli either as a truncated form (ttNOX) (beginning at M220), as a fusion protein with six histidine residues (ttNOX-his) fused to the amino terminus of ttNOX, or as a processed tNOX (beginning at G327). First, the open reading frame of ttNOX DNA and nucleotides of 3′-untranslated region were amplified by PCR, digested with NdeI and BamHI followed by ligation into the protein expression vector pET-11b. All primers were synthesized by the Laboratory for Macromolecular Structure (Purdue University, IN). Primers for PCR amplification of ttNOX were 5′-[…]-3′ (forward, SEQ ID NO: 6) and 5′[…]-3′ (reverse, SEQ ID NO: 7). Primers for processed form of tNOX were 5′-[…]-3′ (forward, SEQ ID NO: 8) and 5′-[…]-3′ (reverse, SEQ ID NO: 9). Primers for histidine-tagged ttNOX were 5′-[…]-3′ (forward, SEQ ID NO: 10) and 5′-[…]-3′ (reverse, SEQ ID NO: 11). The forward primer was designed to incorporate six histidine residues to the amino terminus of tNOX protein. The amplification performed was with an initiation step of 94C. for 90 sec, followed by 90 sec of denaturation at 94C., 90 sec of annealing at 55C., and 90 sec of extension at 72C. for 29 cycles.
E. coli [BL21 (DE3)] were transfected and grown in LB medium containing ampicillin (100 μg/ml) for 16 hr at 25C. and harvested. DNA sequences of the ligation products were confirmed by DNA sequencing. Expressions of all forms of tNOX were confirmed by SDS-PAGE with silver staining and immunoblotting. Immunoblot analysis was with anti-tNOX monoclonal antibody. Detection used alkaline […] conjugated anti-mouse antibody.

tNOX = molecular target: T2, tNOX (Homo sapiens, UniProt Q16206); conditions: cited from earlier work
T2 sequence (Q16206 1-610): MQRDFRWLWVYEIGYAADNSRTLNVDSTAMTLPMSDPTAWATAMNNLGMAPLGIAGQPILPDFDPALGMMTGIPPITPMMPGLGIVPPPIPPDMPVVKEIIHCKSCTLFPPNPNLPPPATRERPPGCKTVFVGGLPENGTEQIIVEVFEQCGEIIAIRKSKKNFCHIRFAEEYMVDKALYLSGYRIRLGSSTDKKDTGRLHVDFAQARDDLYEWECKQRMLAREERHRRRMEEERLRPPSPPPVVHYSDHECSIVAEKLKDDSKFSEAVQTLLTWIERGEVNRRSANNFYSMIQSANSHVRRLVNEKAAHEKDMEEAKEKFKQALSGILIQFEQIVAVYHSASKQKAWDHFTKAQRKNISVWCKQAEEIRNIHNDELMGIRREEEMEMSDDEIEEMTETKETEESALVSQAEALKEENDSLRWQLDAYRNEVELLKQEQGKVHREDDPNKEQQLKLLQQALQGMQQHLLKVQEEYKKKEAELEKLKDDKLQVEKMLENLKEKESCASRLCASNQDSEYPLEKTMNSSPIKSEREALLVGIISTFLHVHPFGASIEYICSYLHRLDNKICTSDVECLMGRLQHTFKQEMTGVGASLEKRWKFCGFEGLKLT

CNOX = conditions: cited from earlier work
[2] = system: plasma membranes prepared from HeLa cells; conditions: cited from earlier work

Molecule | EC50 (COS cells) | EC50 [1] | change of growth response (susceptibility) by tNOX cDNA transfection [1] | further results
Cc1ccc(S(=O)(=O)NC(=O)Nc2ccccc2)cc1 [LY181985, N-(4-methylphenylsulfonyl)-N′-(4-phenyl)urea] | – | – | – | growth inhibition (COS cells; control cells transfected with vector alone): did not inhibit; growth inhibition ([1]; cells transfected with tNOX cDNA): did not inhibit
COc1cccc2c1C(=O)c1c(O)c3c(c(O)c1C2=O)C[C@@](O)(C(=O)CO)C[C@@H]3O[C@H]1C[C@H](N)[C@H](O)[C@H](C)O1 [Adriamycin, adriamycin] | 0.3 µM | 0.04 µM | – | –
COc1cc(CNC(=O)CCCC/C=C/C(C)C)ccc1O [Capsaicin, 8-methyl-N-vanillyl-6-noneamide] | 13 µM | 1.3 µM | more susceptible | inhibition of the activity of the bacterially expressed protein (ttNOX (truncated tNOX)): complete; periodic NADH oxidase activity of induced bacterial extracts (ttNOX (truncated tNOX); in the presence of 1 or 100 μM capsaicin): no periodic activity
CN(Cc1cnc2nc(N)nc(N)c2n1)c1ccc(C(=O)N[C@@H](CCC(=O)O)C(=O)O)cc1 [Methotrexate, methotrexate] | 1 µM | 1 µM | unaffected | –
(−)-epigallocatechin gallate [EGCg] | – | – | more susceptible | effect on activity of tNOX (tNOX): inhibits; effect on constitutive CNOX (CNOX): largely without effect
Cc1ccc(S(=O)(=O)NC(=O)Nc2ccc(Cl)cc2)cc1 [LY181984, N-(4-methylphenylsulfonyl)-N′-(4-chlorophenyl)urea] | 20 µM | 3 µM | – | inhibition of NADH oxidase activity of induced bacterial extract (ttNOX (truncated tNOX); 1 μM): completely inhibited; oxygen uptake by HeLa plasma membranes [2]: inhibited
